From US20090253687A1, “Fused Heterocyclic Compounds and Their Use as Mineralocorticoid Receptor Ligands” (priority 2005, published 2009)

The compounds below were run against T1, Human Mineralocorticoid Receptor (hMR) (Homo sapiens, UniProt P08235) (assay: Inhibition of binding of [3H]-aldosterone to hMR (lysate of FreeStyle 293 cells expressing hMR)). Conditions: compound at 10^−5 M; 10 nM [3H]-aldosterone; hMR lysate 1.0 mg/ml; 16 hr at 4° C.; read-out: Inhibition rate (at 10^−5 M).
T1 construct: Full-length cDNA was constructed from two fragments of hMR cDNA amplified separately; expressed in transfected cells; host or cells: FreeStyle 293 cells transiently transfected with pMCMVneo-hMR; supernatant of the freeze-thaw lysate after ultracentrifugation
T1 sequence (P08235 1-984): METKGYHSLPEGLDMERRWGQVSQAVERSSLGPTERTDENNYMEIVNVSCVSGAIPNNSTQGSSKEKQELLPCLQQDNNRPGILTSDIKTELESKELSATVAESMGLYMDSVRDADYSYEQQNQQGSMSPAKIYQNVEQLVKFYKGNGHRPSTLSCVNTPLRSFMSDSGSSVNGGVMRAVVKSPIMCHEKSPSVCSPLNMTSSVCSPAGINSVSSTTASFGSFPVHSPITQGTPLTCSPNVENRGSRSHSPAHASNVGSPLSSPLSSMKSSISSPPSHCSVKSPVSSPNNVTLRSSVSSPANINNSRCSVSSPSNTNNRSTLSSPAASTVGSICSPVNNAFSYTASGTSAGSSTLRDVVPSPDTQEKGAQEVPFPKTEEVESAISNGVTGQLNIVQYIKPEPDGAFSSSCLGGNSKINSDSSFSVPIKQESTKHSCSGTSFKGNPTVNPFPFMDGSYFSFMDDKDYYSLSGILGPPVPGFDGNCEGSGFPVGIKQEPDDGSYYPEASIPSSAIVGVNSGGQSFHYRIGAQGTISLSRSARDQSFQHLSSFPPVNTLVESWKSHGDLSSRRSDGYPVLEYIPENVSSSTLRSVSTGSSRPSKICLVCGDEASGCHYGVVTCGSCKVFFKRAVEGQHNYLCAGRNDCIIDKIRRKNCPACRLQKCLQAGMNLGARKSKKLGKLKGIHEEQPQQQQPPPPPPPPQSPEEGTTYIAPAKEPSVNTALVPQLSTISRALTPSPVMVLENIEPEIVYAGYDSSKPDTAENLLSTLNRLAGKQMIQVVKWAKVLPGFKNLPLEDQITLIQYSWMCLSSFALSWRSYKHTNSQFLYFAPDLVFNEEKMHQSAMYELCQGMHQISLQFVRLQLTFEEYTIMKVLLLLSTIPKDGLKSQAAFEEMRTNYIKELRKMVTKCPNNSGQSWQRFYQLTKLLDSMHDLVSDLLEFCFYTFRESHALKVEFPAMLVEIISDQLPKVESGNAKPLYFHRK
Description: The following procedures described in this Example were carried out according to the methods described in Molecular Cloning—Cold Spring Harbor Laboratory (1989) or protocols specified by manufacturers. (1) Cloning of Human Mineralocorticoid Receptor (hMR) cDNA hMR cDNA was amplified by polymerase chain reaction (PCR) from human kidney cDNA library. Full-length cDNA was constructed from two fragments of hMR cDNA amplified separately. The primers were designed referring to the nucleotide sequence of hMR cDNA reported by Arriza et. al (Science 1987; 237: 268-275). The PCR reactions were carried out using Pyrobest® DNA polymerase (Takara). The PCR products were electrophoresed in agarose gel, and 1.7 kb (region (i)) and 1.5 kb (region (ii)) DNA fragments were recovered. Each DNA fragment was inserted into pCR®4Blunt-TOPO® vector (Invitrogen). The resulting plasmids thus obtained were designated as pB-hMR (i) and pB-hMR (ii). To obtain the full-length hMR cDNA, pB-hMR (i) was digested with XhoI and PvuI, and pB-hMR (ii) was digested with PvuI and KpnI, respectively, and the two cDNA fragments were ligated into pBlueScript®IISK+ vector (Stratagene). The resulting plasmid thus obtained was designated as pB-hMR. (2) Construction of hMR Expression Plasmid pMCMVneo (described in WO03/099793) was digested with XhoI and KpnI, and 5.6 kb fragment was ligated with 2.9 kb hMR cDNA fragment obtained by digestion of pB-hMR (described in above (1)) with XhoI and KpnI. The plasmid thus obtained was designated as pMCMVneo-hMR. (3) Expression of hMR in FreeStyle 293 Cells and Preparation of Cell Lysate FreeStyle 293 cells were inoculated at 1×10^8 cells in 93 ml FreeStyle™ 293 Expression Medium (Invitrogen) in a 500 ml Erlenmeyer flask and cultured at 37° C. under 8% CO2 for 1 hr. The cells were treated with 6.7 ml of the transfection mixture containing 100 μg of pMCMVneo-hMR obtained in above (2) and 133 μl of FreeStyle™ 293 Transfection Reagent (Invitrogen). The transfected cells were cultivated for 48 hr at 37° C. in 8% CO2 atmosphere. The cultivated cells were centrifuged and washed with TEG buffer (10 mM Tris-HCl (pH 7.2), 50 mM EDTA, 10% glycerol), and resuspended in 10 ml TEGM buffer (10 mM Tris-HCl (pH 7.2), 1 mM EDTA, 10% glycerol, 1 mM β-mercaptoethanol, 10 mM sodium molybdate, 1 mM dithiothreitol, 2 tablets/100 ml of protease inhibitor cocktail tablets (Roche)). The cell suspension was frozen with liquid nitrogen and thawed on ice, and ultra-centrifuged at 225,000×g for 20 min at 4° C. The supernatant fraction including hMR (hMR lysate) was collected and stored at −80° C. (4) Measurement of Inhibition Activity Against Binding of hMR and Aldosterone [^3H]-Aldosterone (Amersham Biosciences) as ligand was added at 10 nM to the reaction mixture including test compound at various concentration and hMR lysate (1.0 mg/ml) obtained in above (3) and mixture was filled up to 50.5 μl with TEGM buffer. The reaction mixture was incubated for 16 hr at 4° C. and 35 μl of dextran/gelatin coated charcoal suspension (5% charcoal, 0.5% dextran T-70 (Amersham Biosciences), 0.1% gelatin (SIGMA), 10 mM Tris HCl (pH 7.2), 1 mM EDTA) was added thereto to separate bound and free radioactive aldosterone. The mixture containing charcoal was incubated for 10 min at 4° C. and centrifuged at 910×g for 10 min at 4° C. Radioactivity in 30 μl of the supernatant was measured by TopCount™ (Packard). For the determination of nonspecific binding, cold Aldosterone instead of drug was added to reaction mixture at 100 μM. Specific binding was determined by subtracting nonspecific binding from total binding.

Row | Compound | inhibition at 10 µM
1 | O=C1COc2ccc(C3=Cc4ccccc4SC3c3ccccc3)cc2N1 (centres unmarked) [Example 20, 6-(2-Phenyl-2H-thiochromen-3-yl)-2H-1,4-benzoxazin-3(4H)-one] | ≥ 70%
2 | O=C1COc2ccc(C3=Nc4ccccc4SC3c3ccccn3)cc2N1 (centres unmarked) [Example 43, 6-(2-Pyridin-2-yl-2H-1,4-benzothiazin-3-yl)-2H-1,4-benzoxazin-3(4H)-one] | ≥ 70%
3 | O=C1COc2ccc(C3=Nc4ccccc4OC3c3ccccc3)cc2N1 (centres unmarked) [Example 18, 2-Phenyl-2H,2′H-3,6′-bi-1,4-benzoxazin-3′(4′H)-one] | ≥ 70%
4 | O=C1COc2ccc(C3=Nn4ccnc4SC3c3ccccc3)cc2N1 (centres unmarked) [Example 5, 6-(2-Phenyl-2H-imidazo[2,1-b][1,3,4]thiadiazin-3-yl)-2H-1,4-benzoxazin-3(4H)-one] | ≥ 70%
5 | O=C1COc2c(F)cc(C3=Nn4cnnc4SC3c3ccc(F)cc3)cc2N1 (centres unmarked) [Example 195, 8-fluoro-6-[7-(4-fluorophenyl)-7H-[1,2,4]triazolo[3,4-b][1,3,4]thiadiazin-6-yl]-2H-1,4-benzoxazin-3(4H)-one] | ≥ 70%
6 | O=C1COc2ccc(C3=Nc4ccccc4SC3c3ccccc3)cc2N1 (centres unmarked) [Example 14, 6-(2-Phenyl-2H-1,4-benzothiazin-3-yl)-2H-1,4-benzoxazin-3(4H)-one] | ≥ 70%
7 | O=C1COc2ccc(C3=C(c4ccc(F)cc4)C(=O)N(c4ccccc4)C3=O)cc2N1 [Example 65, 3-(4-fluorophenyl)-4-(3-oxo-3,4-dihydro-2H-benzo[b][1,4]oxazin-6-yl)-1-phenyl-1H-pyrrole-2,5-dione] | ≥ 70%
8 | N#Cc1ccc2c(c1)SC(c1ccccc1)C(c1ccc3c(c1)NC(=O)CO3)=C2 (centres unmarked) [Example 130, 3-(3-oxo-3,4-dihydro-2H-1,4-benzoxazin-6-yl)-2-phenyl-2H-thiochromene-7-carbonitrile] | ≥ 70%
9 | O=C1COc2ccc(C3=NN(c4ccc(F)cc4)CC3c3ccccc3)cc2N1 (centres unmarked) [Example 49, 6-(1-(4-Fluorophenyl)-4-phenyl-4,5-dihydro-1H-pyrazol-3-yl)-2H-benzo[b][1,4]oxazin-3(4H)-one] | ≥ 70%
10 | Cc1cc(C2=Nn3cnnc3SC2c2ccc(F)cc2)cc2c1OCC(=O)N2 (centres unmarked) [Example 185, 6-[7-(4-fluorophenyl)-7H-[1,2,4]triazolo[3,4-b][1,3,4]thiadiazin-6-yl]-8-methyl-2H-1,4-benzoxazin-3(4H)-one] | ≥ 70%
11 | O=C1COc2ccc(C3=Cc4ccccc4SC3c3ccccn3)cc2N1 (centres unmarked) [Example 44, 6-(2-Pyridin-2-yl-2H-thiochromen-3-yl)-2H-1,4-benzoxazin-3(4H)-one] | ≥ 70%
12 | O=C1COc2ccc(C3=Nn4cnnc4SC3c3ccc(F)cc3)cc2N1 (centres unmarked) [Example 35, 6-[7-(4-Fluorophenyl)-7H-[1,2,4]triazolo[3,4-b][1,3,4]thiadiazin-6-yl]-2H-1,4-benzoxazin-3(4H)-one] | ≥ 70%

Continued, values first:

Row | inhibition at 10 µM | Compound
13 | ≥ 70% | O=C1COc2ccc(C3=Nn4cnnc4SC3c3ccccc3Cl)cc2N1 (centres unmarked) [Example 34, 6-[7-(2-chlorophenyl)-7H-[1,2,4]triazolo[3,4-b][1,3,4]thiadiazin-6-yl]-2H-1,4-benzoxazin-3(4H)-one]
14 | ≥ 70% | O=C1COc2ccc(C3=Nn4cc(C(F)(F)F)nc4SC3c3ccccc3)cc2N1 (centres unmarked) [Example 7, 6-[2-Phenyl-7-(trifluoromethyl)-2H-imidazo[2,1-b][1,3,4]thiadiazin-3-yl]-2H-1,4-benzoxazin-3(4H)-one]
15 | ≥ 70% | O=C1COc2ccc(C3=NN(CC(F)(F)F)CC3c3ccccc3)cc2N1 (centres unmarked) [Example 53, 6-(4-Phenyl-1-(2,2,2-trifluoroethyl)-4,5-dihydro-1H-pyrazol-3-yl)-2H-benzo[b][1,4]oxazin-3(4H)-one]
16 | ≥ 70% | Cc1ccccc1-n1nc(C(F)(F)F)cc1-c1ccc2c(c1)NC(=O)CO2 [Example 82, 6-(1-o-tolyl-3-(trifluoromethyl)-1H-pyrazol-5-yl)-2H-benzo[b][1,4]oxazin-3(4H)-one]
17 | ≥ 70% | O=C1COc2ccc(-c3cc(C(F)(F)F)nn3-c3ccc(F)cc3)cc2N1 [Example 71, 6-(1-(4-Fluorophenyl)-3-(trifluoromethyl)-1H-pyrazol-5-yl)-2H-benzo[b][1,4]oxazin-3(4H)-one]
18 | ≥ 70% | Cc1cc(F)ccc1-n1nc(C(F)(F)F)cc1-c1cc(C)c2c(c1)NC(=O)CO2 [Example 110, 6-(1-(4-fluoro-2-methylphenyl)-3-(trifluoromethyl)-1H-pyrazol-5-yl)-8-methyl-2H-benzo[b][1,4]oxazin-3(4H)-one]
19 | ≥ 70% | Cc1cc(F)ccc1-n1nc(C(F)(F)F)cc1-c1cc(C)c2c(n1)NC(=O)CO2 [Example 255, 6-[1-(4-fluoro-2-methylphenyl)-3-(trifluoromethyl)-1H-pyrazol-5-yl]-8-methyl-2H-pyrido[3,2-b][1,4]oxazin-3(4H)-one]
20 | ≥ 70% | Cc1cc(F)ccc1-n1nc(C(F)(F)F)cc1-c1ccc2c(c1)NC(=O)CO2 [Example 107, 6-(1-(4-fluoro-2-methylphenyl)-3-(trifluoromethyl)-1H-pyrazol-5-yl)-2H-benzo[b][1,4]oxazin-3(4H)-one]
21 | ≥ 70% | NC1=NC=C(c2ccc3c(c2)NC(=O)CO3)C(c2ccccc2)S1 (centres unmarked) [Example 24, 6-(2-amino-6-phenyl-6H-1,3-thiazin-5-yl)-2H-1,4-benzoxazin-3(4H)-one]
22 | ≥ 70% | Cc1nn(C)c(-c2ccc3c(c2)NC(=O)CO3)c1-c1ccccc1 [Example 288, 6-(1,3-dimethyl-4-phenyl-1H-pyrazol-5-yl)-2H-benzo[b][1,4]oxazin-3(4H)-one]
23 | ≥ 70% | O=C1COc2ccc(C3=Cn4ccnc4SC3c3ccccc3)cc2N1 (centres unmarked) [Example 26, 6-(7-Phenyl-7H-imidazo[2,1-b][1,3]thiazin-6-yl)-2H-1,4-benzoxazin-3(4H)-one]
